{"source": "paper PMC12333940", "about": "“A prometabolite strategy inhibits cardiometabolic disease in an ApoE^–/– murine model of atherosclerosis” (JCI Insight, 2025)", "key": {"[1]": {"system": "ApoE^–/– mice on an HFD", "assay": "Flow cytometry of the aorta", "format": "in vivo, mouse", "design": "Aorta Flow CD11b+F480+ / Aorta Flow CD11b+Ly6Chi: unit not given here", "description": "SerBut water was pH adjusted using 10 M NaOH to a final pH of 7.4. […] After 6 weeks, mice were euthanized. […] The liver was harvested and part was homogenized in tissue protein extraction reagent buffer (Invitrogen, 78510) supplemented with protease inhibitor mini tablets (Thermo Fisher Scientific, PIA32955) for Western blotting and qPCR. […] The heart with the ascending and descending aorta to the diaphragm was harvested. The perivascular adipose tissue was carefully removed by microdissection while keeping the adventitia intact. […] After 45 minutes of digestion at 37°C with orbital shaking, aortas were passed through a 70 μm cell strainer, rinsed, pelleted, and plated into a U-bottom 96-well microplate for staining. […] Cells were washed in PBS supplemented with 2% FBS (FACS buffer) and stained for 30 minutes on ice with surface antibodies at a 1:200 dilution in a 1:1 mixture of FACS buffer and Brilliant Stain Buffer (BD Biosciences). Cells were washed with FACS buffer and PBS and fixed with 2% paraformaldehyde on ice for 20 minutes. Cells were washed twice with PBS and resuspended in FACS buffer. Precision count beads (BioLegend) were used to determine absolute cell counts. In this study, antibodies used included those against CD16/CD32 (BioLegend, clone 93, catalog 101302), CCR2 (PE; […] BD Biosciences, clone HL3, catalog 558079, BD Biosciences), […] (APC; […] BD Biosciences, clone 30-F11, catalog 564225), F4/80 (BUV496; BD Biosciences, clone T45-2342, catalog 750644), […].5; BioLegend, clone M5/114.15.2, catalog 107626), Ly-6C (APC-Cy7; […]"}, "[2]": {"assay": "Biodistribution of free butyrate in intestinal tissue and contents, C57BL/6 mice", "format": "in vivo", "description": "NaBut is limited in its translation by butyrate’s rapid consumption by colonocytes as a primary energy source in the distal gut. We propose that the enhanced biodistribution of free, active butyrate (following cleavage from serine) in SerBut-treated mice is due to small intestinal escape from the gut via amino acid transporters. To probe this hypothesis, we repeated the experiment and analyzed the biodistribution of free active butyrate in distinct sections of the intestinal tissue and the intestinal contents (Figure 2, K and L, and Supplemental Figure 2). Because neither ApoE^–/– nor HFD feeding would be expected to change amino acid receptor expression or function in the intestine, this was performed in C57BL/6 mice on a normal diet. […] We saw no increase in butyrate in the colon tissue (Figure 2P).\nSamples were prepared and derivatized as described previously ([28]). […] The internal standard, 4-methylvaleric acid, was added.\nInjection volume: 5.0 μL. Flow rate: 0.5 mL/min."}, "[3]": {"assay": "Body weight during treatment", "format": "in vivo, ApoE^–/– mice", "details": "in g (unit assumed)", "description": "SerBut water was pH adjusted using 10 M NaOH to a final pH of 7.4. […] After 6 weeks, mice were euthanized. […] The liver was harvested and part was homogenized in tissue protein extraction reagent buffer (Invitrogen, 78510) supplemented with protease inhibitor mini tablets (Thermo Fisher Scientific, PIA32955) for Western blotting and qPCR."}, "[4]": {"system": "RAW 264.7 macrophages", "assay": "Flow cytometry of iNOS, CD80, CD86 in LPS-stimulated RAW 264.7", "format": "cell-based", "details": "for CD80+ % Live / CD86+ % Live / iNOS+ %Live: listed as SB", "method": "RAW 264.7 (ATCC, TIB-71) macrophages were cultured at 37°C and 5% CO2 in DMEM (Gibco) supplemented with 1 mM HEPES, 1 mM sodium pyruvate, 10% FBS, and penicillin/streptomycin. Cells were plated in round-bottom 96-well plates at 100,000 cells per well and incubated with different concentrations of either NaBut or SerBut (0.15–12 mM) for 24 hours. […] The cell culture supernatant was collected and analyzed by LEGENDPlex to analyze the concentrations of cytokines (BioLegend). Cell phenotype was analyzed using flow cytometry (Cytek Aurora).\nFlow cytometry was performed using a BD LSRFortessa or a Cytek Aurora full-spectrum cytometer. Data were analyzed using FlowJo version 10.8.0. eFluor 780 Viability Dye (Invitrogen, 65-0865-14) and antibodies against the following markers were used in the RAW 264.7 macrophage in vitro studies: CD86 (BV421; BD Horizon, catalog 564198), CD80 (BC650; BioLegend, clone 16-10A1, catalog 104732), and iNOS (APC; Invitrogen, clone CXNFT, catalog 17-5920-9). Live/Dead Blue (Invitrogen, 123105A) and antibodies against the following markers were used in the atherosclerosis mouse models: F4/80 (FITC; BioLegend, clone BM8, catalog 123108), CD3e (BV605; BD Biosciences, clone 145-2C11, catalog 563565), CD4 (BUV496; BD Biosciences, clone GK 1.5, catalog 612952), RORγt (AF647; BD Biosciences, clone Q31-378, catalog 562682), FoxP3 (AF488, BD Biosciences, clone MF23, catalog 560403), CCR2 (PE; R&D Systems, catalog FAB5538P), Ly6C (APC-Cy7; BioLegend, catalog 128026, clone HK1.4), Ly6G (AF488; BioLegend, catalog 127626), CD8 (APC-Cy7; BioLegend, clone 53-6.7, catalog 100714), CD45 (BUV805; Invitrogen, clone 30-F11, catalog 368-0451-82), and CD25 (PerCP-Cy5.5; BioLegend, clone PC61, catalog 102030)."}, "[5]": {"system": "HDAC", "design": "method as in PMID 38561491", "details": "RAW 264.7 ref 28; cited from earlier work"}, "[6]": {"details": "4 mM, 12 Hour LPS stim after Butyrate treament"}, "[7]": {"details": "4 mM, 12 hour LPS stim before butyrate treatment"}, "[8]": {"details": "12 mM, 12 Hour LPS stim after Butyrate treament"}, "[9]": {"details": "12 mM, 12 hour LPS stim before butyrate treatment"}}, "note": "Where “and” joins values, the source holds several entries; their conditions need not be identical. Equal values may be shown once.", "data": [{"smiles": "CCCC(=O)OC[C@H](N)C(=O)O", "note": "[SerBut, O-butyryl-L-serine]", "values": [{"measurement": "CD11b^+Ly6C^hi monocytes and CD4^+ T cells in the aorta", "setting": "[1]; 6 weeks, compared to water-treated controls", "result": "significantly reduced"}, {"measurement": "CD45^+ total leukocytes, CD11b^+ monocytes and CCR2^+CD11b^+ monocytes in the aorta", "setting": "[1]; 6 weeks, compared with control groups", "result": "significantly reduced"}, {"measurement": "CD11c^+MHCII^hi dendritic cells, CD11b^+F480^+ macrophages and CD19^+ B cells in the aorta", "setting": "[1]; 6 weeks, compared with water controls", "result": "significantly reduced"}, {"measurement": "Aorta Flow B cell Count", "setting": "[1]; individual mice", "result": "84.4967 and 264.868 and 232.342 and 96.7663 and 273.748 and 383.747 and 234.355 and 234.323 and 206.881"}, {"measurement": "Aorta Flow CD11b+F480+", "setting": "[1]; individual mice", "result": "2.449 and 2.499 and 9.294 and 20.8231 and 9.359 and 5.0163 and 5.067 and 13.3899 and 12.3679"}, {"measurement": "Aorta Flow CD11b+Ly6Chi", "setting": "[1]; individual mice", "result": "17.5571 and 39.2703 and 12.2741 and 5.622 and 12.2459 and 19.99 and 12.7788 and 6.124 and 10.5288"}, {"measurement": "Aorta Flow T Cell Count", "setting": "[1]; individual mice", "result": "194.71 and 307.346 and 249.768 and 304.998 and 251.521 and 313.519 and 377.502 and 212.006 and 174.275"}, {"measurement": "Aorta Flow CD11b+ Count", "setting": "[1]; individual mice, experiment 2", "result": "156.172 and 152.184 and 222.93 and 139.214 and 215.701 and 328.097 and 166.257 and 155.161 and 99.1918"}, {"measurement": "Aorta Flow CD11b+CCR2+", "setting": "[1]; individual mice, experiment 2", "result": "32.4838 and 20.9108 and 28.1725 and 25.737 and 41.3845 and 93.7421 and 32.3588 and 29.2332 and 22.0426"}, {"measurement": "Aorta Flow CD45 Count", "setting": "[1]; individual mice, experiment 2", "result": "1030.73 and 928.206 and 1219.99 and 1078.62 and 1098.57 and 1777.3 and 1018.75 and 756.69 and 848.641"}, {"measurement": "Aorta Flow CD11c+MHCIIhi", "setting": "[1]; individual mice, cell count", "result": "16.2419 and 24.3959 and 22.048 and 17.548 and 21.3193 and 22.8021 and 17.8532 and 22.4871 and 13.4705"}, {"measurement": "free butyrate, Lower SI Contents", "setting": "[2]; C57BL/6, normal chow, 3 hr after single gavage", "result": "61.2227 µg/g and 52.7128 µg/g and 33.2508 µg/g and 35.0221 µg/g"}, {"measurement": "butyrate in the colon tissue", "setting": "[2]; C57BL/6, normal diet", "result": "no increase"}, {"measurement": "free butyrate in the intestinal contents", "setting": "[2]; C57BL/6, normal diet", "result": "no significant changes"}, {"measurement": "free butyrate in upper and lower small intestine and ileum tissue", "setting": "[2]; compared with both PBS- and NaBut-treated mice", "result": "significantly more free, active butyrate"}, {"measurement": "Weight", "setting": "[3]; week 0, 150 mM in drinking water with HFD, individual mice", "result": "18.7 and 18.3 and 20 and 18.8 and 17 and 19.2 and 18.6 and 18.9 and 20.5 and 19.6"}, {"measurement": "Weight", "setting": "[3]; week 2", "result": "20.9 and 20.5 and 20.2 and 18.7 and 20 and 20.6 and 20.3 and 21.2"}, {"measurement": "Weight", "setting": "[3]; week 2.5", "result": "21.2 and 20.6 and 21.6 and 19.8 and 21.4 and 21.5 and 20.7 and 21.9"}, {"measurement": "Weight", "setting": "[3]; week 5", "result": "24 and 22.2 and 21.8 and 20.2 and 21.1 and 22.4 and 21.4 and 22.7"}, {"measurement": "Weight", "setting": "[3]; week 6", "result": "23.8 and 21.9 and 22.9 and 19.2 and 21.6 and 22.7 and 21.4 and 23.1"}, {"measurement": "CD80 MFI", "setting": "[4]; 1.3 mM 24 h, then LPS 6 h", "result": "22757 and 22379 and 22182 and 22697 and 22413"}, {"measurement": "iNOS MFI", "setting": "[4]; 1.3 mM 24 h, then LPS 6 h", "result": "133476 and 131849 and 120651 and 126894 and 131328"}, {"measurement": "CD80 MFI", "setting": "[4]; 4 mM 24 h, then LPS 6 h", "result": "22258 and 21750 and 21713 and 21977 and 22364 and 21487"}, {"measurement": "iNOS MFI", "setting": "[4]; 4 mM 24 h, then LPS 6 h", "result": "123258 and 124792 and 115548 and 125159 and 131532 and 119298"}, {"measurement": "CD80+ % Live", "setting": "[4]; [6]", "result": "20.6% and 26% and 25.2%"}, {"measurement": "CD86+ % Live", "setting": "[4]; [6]", "result": "6.07% and 6.44% and 6.25%"}, {"measurement": "iNOS+ %Live", "setting": "[4]; [6]", "result": "57.8% and 66.6% and 65.8%"}, {"measurement": "CD80+ % Live", "setting": "[4]; [7]", "result": "45.8% and 43.1% and 44.5%"}, {"measurement": "CD86+ % Live", "setting": "[4]; [7]", "result": "14.9% and 14.1% and 14.2%"}, {"measurement": "iNOS+ %Live", "setting": "[4]; [7]", "result": "40.8% and 45.6% and 40.9%"}, {"measurement": "iNOS and CD80 expression after LPS stimulation", "setting": "[4]; 12 mM", "result": "significantly reduced"}, {"measurement": "CD80 MFI", "setting": "[4]; 12 mM 24 h, then 200 ng/mL LPS 6 h", "result": "20826 and 21079 and 20195 and 20493 and 21214 and 20412"}, {"measurement": "iNOS MFI", "setting": "[4]; 12 mM 24 h, then LPS 6 h", "result": "95330 and 101513 and 93052 and 99228 and 94381 and 96644"}, {"measurement": "CD80+ % Live", "setting": "[4]; [8]", "result": "13.7% and 18.3% and 22.8%"}, {"measurement": "CD86+ % Live", "setting": "[4]; [8]", "result": "6.99% and 8.29% and 9.22%"}, {"measurement": "iNOS+ %Live", "setting": "[4]; [8]", "result": "26.5% and 43.9% and 50.9%"}, {"measurement": "CD80+ % Live", "setting": "[4]; [9]", "result": "43.1% and 48% and 48.3%"}, {"measurement": "CD86+ % Live", "setting": "[4]; [9]", "result": "14.5% and 13.5% and 15.9%"}, {"measurement": "iNOS+ %Live", "setting": "[4]; [9]", "result": "31.3% and 49.4% and 36.1%"}, {"measurement": "iNOS-suppressing capacity during longer LPS stimulations", "setting": "[4]; high doses", "result": "maintained"}, {"measurement": "HDAC inhibition activity", "setting": "[5]", "result": "maintained attenuated HDAC inhibition activity"}]}]}
